# From US9586959B2, “Substituted tricyclic heterocycles as histamine 4 receptor inhibitors” (C&C RESEARCH LABORATORIES, priority 2011, dated 2017)
# Where a name gives a salt, the structure may show the parent alone.
# What was measured:
# [1] = target: human histamine 3 receptor (hH3R) (Homo sapiens (Human), UniProt Q9Y5N1); test: Binding affinity of human histamine 3 receptor (hH3R), [3H] labeled N-α-methylhistamine displacement; settings: hH3R-overexpressed cell membrane, [3H] N-α-methylhistamine
# Method: 10 μL of the prepared compound solution was allocated in each well of a 96-well plate, and then 10 μL of 200 μM (R)(−)-α-methylhistamine (RaMH) diluted with analysis buffer and 1% of DMSO were transferred to each well to calculate non-specific binding and total binding degree. 15 μg of human histamine 3 receptor-overexpressed cell membrane (PerkinElmer) was diluted with 180 μL of analysis buffer solution (50 mM tris-HCl pH 7.4, 5 mM MgCl2), and that was transferred to each well. [^3H] labeled Na-methylhistamine (PerkinElmer) was diluted into […], 10 μL of that was added to each well, and then it was kept in a 27° C. incubator for 30 minutes. After the reaction, 200 μL of the mixture was transferred to a glass fiber plate in which 0.5% polyethylene amine was presoaked, and then non-binding [^3H] labeled Na-methylhistamine was removed in vacuum. After 5 times washing with 200 μL of washing buffer solution (50 mM tris-HCl, pH 7.4), the plate was dried in a 37° C. oven for 18 hours. 100 μL of betascint cocktail solution was added to each well, and after 1 hour CPM of [^3H] labeled N-α-methylhistamine was measured by using Wallac beta-counter TriLux. The binding affinity (IC50) of the human histamine 3 receptor for the present invention was analyzed by an Excel program, and the results of analysis are shown in Table 2.
# [2] = target: human histamine 4 receptor (hH4R) (Homo sapiens (Human), UniProt Q9H3N8); test: Binding affinity of human histamine 4 receptor (hH4R), [3H] labeled histamine displacement; settings: hH4R-overexpressed cell membrane, [3H] histamine
# Method: 20 μL of the prepared compound solution was transferred to each well of a 96-well plate, and then 20 μL of 100 μM histamine diluted with analysis buffer solution and 1% DMSO were transferred to each well to calculate non-specific binding and total binding degree. 25 μg of human histamine 4 receptor-overexpressed cell membrane (PerkinElmer) was diluted into 160 μL of analysis buffer solution and that was transferred to each well. [^3H] labeled histamine (PerkinElmer) was diluted into 1 μM concentration, 20 μL was allocated in each well, and then it was kept in a 27° C. incubator for 30 minutes. After the reaction, 200 μL of the mixture was transferred to a glass fiber plate in which 0.5% polyethylene amine was presoaked, and then non-binding [^3H] labeled histamine was removed in vacuum. After 4 times washing with 200 μL of washing buffer solution (50 mM tris-HCl, pH 7.4), the plate was dried in a 37° C. oven for 18 hours. 100 μL of betascint cocktail solution was added to each well, and after 1 hour CPM (count per minute) value of [^3H] labeled histamine was measured by using Wallac beta-counter TriLux.
# [3] = Solubility in artificial gastrointestinal tract solution; type: physicochemical; settings: artificial gastrointestinal tract solution, thermodynamic from solid; for solubility at 1 h: fassgf or other biorelevant, first solution pH 1.2, 2 mg/mL sample, 37° C. 1 hour; for solubility at 2 h: fassif, second solution pH 6.5, 2 mg/mL sample, 37° C. 2 hours
# Method: 2.0 g of sodium chloride was added in 7.0 mL of 37% of hydrochloric acid and water to make the total volume of 1 L. The pH was adjusted to exactly 1.2 with 1N sodium hydroxide or 1N hydrochloric acid. A small amount (20 mL) of this solution was taken and added in 25 μL of triton X-100 to make the total volume of 25 mL.
# 0.348 g sodium hydroxide, 3.438 g NaH2PO4, 6.186 g sodium chloride and water were added to make the total volume of 1 L. The pH was adjusted to exactly 6.5 with 1N sodium hydroxide or 1N hydrochloric acid. A small amount (20 mL) of this solution was taken and 41.25 mg of sodium taurocholate hydrate and 25 μL of 750 mM lecithin dissolved in ethanol was added to make the total volume of 25 mL.
# The heated test sample solutions were filtered to remove undissolved compounds therein. Finally, 100 μL of the completely compound-dissolved solution was sampled and 100 μL of CH3CN was added thereto to make the test sample solution. For each analysis of the test sample solution, the solubility was measured by using liquid chromatography.
# human histamine 3 receptor (hH3R), sequence (Q9Y5N1 whole entry): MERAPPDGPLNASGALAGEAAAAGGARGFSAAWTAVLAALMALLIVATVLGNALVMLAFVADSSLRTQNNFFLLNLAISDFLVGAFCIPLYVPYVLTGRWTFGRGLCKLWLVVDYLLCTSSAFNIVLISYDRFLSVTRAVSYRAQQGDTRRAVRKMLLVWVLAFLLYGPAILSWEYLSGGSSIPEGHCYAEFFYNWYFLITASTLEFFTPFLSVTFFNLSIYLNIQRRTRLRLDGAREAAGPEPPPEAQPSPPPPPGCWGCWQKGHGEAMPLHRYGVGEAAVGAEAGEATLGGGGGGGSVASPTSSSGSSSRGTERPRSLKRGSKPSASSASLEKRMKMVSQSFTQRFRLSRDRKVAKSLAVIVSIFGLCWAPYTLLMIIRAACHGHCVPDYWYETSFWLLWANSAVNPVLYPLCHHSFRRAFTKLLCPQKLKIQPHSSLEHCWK
IC50 [1],IC50 [2],solubility at 1 h [3],solubility at 2 h [3],SMILES
> 100 µM,0.26 µM,,,"C=Cc1cnc2nc(N3CC(NC)C3)c3nncn3c2c1 [Compound 55, N-Methyl-1-(8-vinylpyrido[2,3-e][1,2,4]triazolo[4,3-a]pyrazin-4-yl)azetidin-3-amine]"
,0.3 µM,,,"Cc1c(Br)cnc2nc(N3CCN(C)CC3)c3nncn3c12 [Compound 66, 8-Bromo-9-methyl-4-(4-methylpiperazin-1-yl)pyrido[2,3-e][1,2,4]triazolo[4,3-a]pyrazine]"
> 100 µM,0.14 µM,,,"CCOc1nc2nc(N3CCN(C)CC3)c3nncn3c2cc1Cl [Compound 23, 8-Chloro-7-ethoxy-4-(4-methylpiperazin-1-yl)pyrido[2,3-e][1,2,4]triazolo[4,3-a]pyrazine]"
97 µM,0.07 µM,,,"CN1CCN(c2nc3ncc(Cl)cc3c3cn(C)nc23)CC1 [Compound 43, 8-Chloro-2-methyl-4-(4-methylpiperazin-1-yl)-2H-pyrazolo[3,4-c][1,8]naphthylidine]"
,0.011 µM,1.7 mg/mL,1.09 mg/mL,"Cc1nc2c(N3CCN(C)CC3)nc3ncc(Cl)cc3n2n1 [Compound 98, 8-Chloro-2-methyl-4-(4-methylpiperazin-1-yl)pyrido[2,3-e][1,2,4]triazolo[1,5-a]pyrazine]"
,0.154 µM,1.91 mg/mL,1.1 mg/mL,"CN1CCN(c2nc3ncc(Cl)cc3n3ccnc23)CC1 [Compound 46, 8-Chloro-4-(4-methylpiperazin-1-yl)imidazo[1,2-a]pyrido[2,3-e]pyrazine]"
> 100 µM,0.24 µM,1.94 mg/mL,0.96 mg/mL,"CNC1CN(c2nc3ccc(Cl)nc3n3cnnc23)C1 [Compound 116, 1-(2-chloropyrido[3,2-e][1,2,4]triazolo[4,3-a]pyrazin-6-yl)-N-methylazetidin-3-amine]"
> 100 µM,0.24 µM,,,"CN1CCN(c2nc3nc(OCC(F)(F)F)c(Cl)cc3n3cnnc23)CC1 [Compound 64, 8-Chloro-4-(4-methylpiperazin-1-yl)-7-(2,2,2-trifluoroethoxy)pyrido[2,3-e][1,2,4]triazolo[4,3-a]pyrazine]"
> 100 µM,0.49 µM,,,"CNC1CN(c2nc3nc(C#N)c(Cl)cc3n3cnnc23)C1 [Compound 28, 8-Chloro-4-(3-(methylamino)azetidin-1-yl)pyrido[2,3-e][1,2,4]triazolo[4,3-a]pyrazin-7-carbonitrile]"
,0.618 µM,,,"Clc1cnc2nc(N3CCNCC3)c3nccn3c2c1 [Compound 47, 8-Chloro-4-(piperazin-1-yl)imidazo[1,2-a]pyrido[2,3-e]pyrazine]"
> 100 µM,0.231 µM,,,"Cc1nc2nc(N3CCN(C)CC3)c3nncn3c2cc1Br [Compound 100, 8-bromo-7-methyl-4-(4-methylpiperazin-1-yl)pyrido[2,3-e][1,2,4]triazolo[4,3-a]pyrazine]"
> 100 µM,0.314 µM,,,"CNC1CN(c2nc3ncc(Cl)c(Cl)c3n3cnnc23)C1 [Compound 67, 1-(8,9-Dichloropyrido[2,3-e][1,2,4]triazolo[4,3-a]pyrazin-4-yl)-N-methylazetidin-3-amine]"
> 100 µM,0.58 µM,,,"CCOc1nc2nc(N3CCNCC3)c3nncn3c2cc1Cl [Compound 63, 8-Chloro-7-ethoxy-4-(piperazin-1-yl)pyrido[2,3-e][1,2,4]triazolo[4,3-a]pyrazine]"
> 100 µM,0.506 µM,,,"Cc1cnc2nc(N3CCN(C)CC3)c3nncn3c2c1 [Compound 2, 8-Methyl-4-(4-methylpiperazin-1-yl)pyrido[2,3-e][1,2,4]triazolo[4,3-a]pyrazine]"
> 100 µM,,1.84 mg/mL,1.94 mg/mL,"CNC1CN(c2nc3ncc(Cl)cc3c3oc(C)nc23)C1 [Compound 91, 1-(8-Chloro-2-methyloxazolo[4,5-c][1,8]naphthylidine-4-yl)-N-methylazetidin-3-amine]"
,0.062 µM,,,"CN1CCN(c2nc3ncc(Cl)cc3n3nnnc23)CC1 [Compound 94, 8-Chloro-4-(4-methylpiperazin-1-yl)pyrido[2,3-e]tetrazolo[1,5-a]pyrazine]"
> 100 µM,0.61 µM,,,"COc1nc2nc(N3CCN(C)CC3)c3nncn3c2cc1Cl [Compound 60, 8-Chloro-7-methoxy-4-(4-methylpiperazin-1-yl)pyrido[2,3-e][1,2,4]triazolo[4,3-a]pyrazine]"
,0.17 µM,,,"CN1CCN(c2nc3ncc(Cl)cc3c3ncnn23)CC1 [Compound 35, 9-Chloro-5-(4-methylpiperazin-1-yl)pyrido[3,2-e][1,2,4]triazolo[1,5-c]pyrimidine]"
> 100 µM,0.71 µM,,,"CNC1CN(c2nc3ncc(C(F)F)cc3n3cnnc23)C1 [Compound 51, 1-(8-(Difluoromethyl)pyrido[2,3-e][1,2,4]triazolo[4,3-a]pyrazin-4-yl)-N-methylazetidin-3-amine]"
> 100 µM,,,,"CNC1CN(c2nc3nc(O)c(Cl)cc3n3cnnc23)C1 [Compound 101, 8-chloro-4-(3-(methylamino)azetidin-1-yl)pyrido[2,3-e][1,2,4]triazolo[4,3-a]pyrazin-7-ol HCl salt]"
> 100 µM,0.21 µM,,,"CNC1CN(c2nc3cnc(Cl)cc3n3cnnc23)C1 [Compound 117, 1-(8-chloropyrido[3,4-e][1,2,4]triazolo[4,3-a]pyrazin-4-yl)-N-methylazetidin-3-amine]"
> 100 µM,,,,"COCc1nc2c3cc(Cl)cnc3nc(N3CCN(C)CC3)n2n1 [Compound 40, 9-Chloro-2-(methoxymethyl)-5-(4-methylpiperazin-1-yl)pyrido[3,2-e][1,2,4]triazolo[1,5-c]pyrimidine]"
> 100 µM,,,,"Cc1nnc2c(N3CCN(C)CC3)nc3ncc(Cl)cc3n12 [Compound 14, 8-Chloro-1-methyl-4-(4-methylpiperazin-1-yl)pyrido[2,3-e][1,2,4]triazolo[4,3-a]pyrazine]"
> 100 µM,,,,"Cc1cnc2c(c1)nc(N1CCN(C)CC1)c1nncn12 [Compound 1, 3-Methyl-6-(4-methylpiperazin-1-yl)pyrido[3,2-e][1,2,4]triazolo[4,3-a]pyrazine]"
> 100 µM,,,,"CC1CN(c2nc3ncc(Cl)cc3n3cnnc23)CC(C)N1C (stereo not shown) [Compound 22, 8-Chloro-4-(3,4,5-trimethylpiperazin-1-yl)pyrido[2,3-e][1,2,4]triazolo[4,3-a]pyrazine]"
,0.028 µM,,,"CN1CCN(c2nc3ncc(Br)cc3n3nnnc23)CC1 [Compound 96, 8-Bromo-4-(4-methylpiperazin-1-yl)pyrido[2,3-e]tetrazolo[1,5-a]pyrazine]"
> 100 µM,0.034 µM,,,"CN1CCN(c2nc3ncc(I)cc3n3cnnc23)CC1 [Compound 49, 8-Iodo-4-(4-methylpiperazin-1-yl)pyrido[2,3-e][1,2,4]triazolo[4,3-a]pyrazine]"

SMILES,IC50 [1],IC50 [2],solubility at 1 h [3],solubility at 2 h [3]
"Brc1cnc2nc(N3CCN4CCCC4C3)c3nncn3c2c1 (stereo not shown) [Compound 74, 8-Bromo-4-(hexahydropyrrolo[1,2-a]pyrazin-2(1H)-yl)pyrido[2,3-e][1,2,4]triazolo[4,3-a]pyrazine]",,0.06 µM,1.53 mg/mL,0.646 mg/mL
"Ic1cnc2nc(N3CCN4CCCC4C3)c3nncn3c2c1 (stereo not shown) [Compound 75, 4-(Hexahydropyrrolo[1,2-a]pyrazin-2(1H)-yl)-8-iodopyrido[2,3-e][1,2,4]triazolo[4,3-a]pyrazine]",,0.064 µM,2 mg/mL,0.723 mg/mL
